The results in this text go back to patent publication US20250049816A1, “COMPOSITIONS COMPRISING THYMOQUINONE AND VITAMIN D” (N.S. Oils Ltd., priority 2021, published 2025).

What all share (assay type): cell-based, murine
The test system of one experiment is UCP1. Nature of the experiment: Western blot, UCP1 expression in cultured adipocytes. The settings on record: TQ 1 μM, vitamin D3 10 nM, alone or combined; 6 days; relative to β-actin; FIG. 6. The method, then: (§1) 3T3-L1 murine fibroblasts were obtained from American Type Culture Collection (Rockville, MD, USA). After thawing, cells were resuspended in DMEM, supplemented with 10% heat-inactivated fetal bovine serum (FBS, Invitrogen, Carlsbad, CA, USA) and 1% antibiotic/antimycotic solution (Invitrogen). Culture medium was replaced every 3 days containing 0.25 μM dexamethasone, 10 μg/ml insulin and 0.5 mM 3-isobutyl-1-methylxanthine (Sigma-Aldrich, St. Louis, MO, USA) in DMEM with 10% FBS. Differentiating 3T3-L1 preadipocytes were treated with TQ or Vitamin D3 or combinations thereof for 6 days.
(§2) The cultured adipocytes were homogenized and lysed in RIPA lysis buffer containing protease and phosphatase inhibitors (Complete TM Mini and PhosSTOPTM, Roche Diagnostics, Indianapolis, IN). […] The blots were visualized using an Odyssey Infrared Imaging Scanner (Li-Cor Science Tec) and quantified by densitometric analysis after normalization with β-actin. […]
(§3) The aim of this study was to investigate the effect of a combination of vitamin D3 (10 nM) and TQ (1 μM) on the expression of the UCP1, PGC-1α and Mfn2 genes in cultured adipocytes. […] Following SDS-PAGE separation and western blotting, the three gene products were detected using the appropriate antibodies, and the level of each protein measured, all as described above in the general methods section.
Background: In western blotting, separated proteins are transferred to a membrane and probed.

The test system of experiment [1] is differentiated adipocytes (3T3-L1 cells). Kind of experiment: Oil red O staining, lipid droplet size in differentiated cultured adipocytes. The note with it: 6 days, vs untreated control (C). How it is done:
as §1
The size of the lipid droplets in differentiated adipocytes (i.e., 3T3-L1 cells prepared as in the previous section) following the various treatments was measured using oil red O staining. Briefly, differentiated adipocytes were washed with phosphate buffered saline (PBS) and fixed in 3.7% formaldehyde for 10 min. Cells were stained with oil red O solution for 30 min at 25° C. Staining was visualized using bright-field microscopy. Lipid droplet size was then measured using Image Pro (advance Imaging Concept, Inc., Princeton, NJ).
The aim of this study was to investigate the effect of combinations of TQ and vitamin D3 on the accumulation of lipids in cultured adipocytes. For the purpose of this investigation, 3T3-L1 murine fibroblasts were grown and differentiated as described hereinabove. The differentiated cultures were then treated for six days with TO, vitamin D3 or combinations thereof. Following this treatment, the size of the accumulated lipid droplets within the cultured cells were assessed using the oil red O staining method described hereinabove.

For a further experiment, the system named is TNF-α. Kind of experiment: Western blot, TNF-α levels produced by cultured differentiated 3T3-L1 cells. The note with it: 1 μM TQ alone or 10 nM Vitamin D3 alone, vs untreated control (C), FIG. 9. How it is done: as §1
The cultured adipocytes were homogenized and lysed in RIPA lysis buffer containing protease and phosphatase inhibitors (Complete TM Mini and PhosSTOPTM, Roche Diagnostics, Indianapolis, IN). Protein samples were separated using 10% sodium dodecyl sulfate-polyacrylamide (SDS) gels and transferred to a nitrocellulose membrane (Bio-Rad, Hercules, CA, USA). […] The blots were visualized using an Odyssey Infrared Imaging Scanner (Li-Cor Science Tec) and quantified by densitometric analysis after normalization with β-actin. […]
The levels of TNF-α produced by cultured, differentiated 3T3-L1 cells were measured using specific anti-TNF-α antibodies in a western blot assay, as described hereinabove. […]

For a further experiment, the system named is Mfn2. Kind of experiment: Western blot, Mfn2 expression in cultured adipocytes. The note with it: TQ 1 μM, vitamin D3 10 nM, alone or combined; 6 days; relative to β-actin; vs untreated control (C); FIG. 8. The method, then: as §1, §2, §3
Another experiment concerns PGC-1α. Kind of experiment: Western blot, PGC-1α expression in cultured adipocytes. The note with it: TQ 1 μM, vitamin D3 10 nM, alone or combined; 6 days; relative to β-actin; FIG. 7. The method, then: as §1, §2, §3

Entries after “also recorded” stand apart in the source; their conditions may differ.

For the compound `CC1=CC(=O)C(C(C)C)=CC1=O` [TQ, thymoquinone], the UCP1 expression result in the experiment with UCP1 is on record as “statistically significant elevation of UCP1 expression”. The “average lipid droplet size” value in experiment [1] (TQ 1 μM, FIG. 1) was “statistically significant reduction in lipid droplet size”; in experiment [1] (TQ 2 μM, FIG. 1), “statistically significant reduction in lipid droplet size; also recorded: greater degree of size reduction than that caused by the 1 μM dose; also recorded: greatest effect”; in experiment [1] (TQ 4 μM, FIG. 1), “statistically significant reduction in lipid droplet size; also recorded: did not cause any further enhancement of this effect; also recorded: greatest effect”. In addition, the “decrease in TNF-α expression” value in the experiment with TNF-α is recorded as “approximately 50%”. Moreover, the Mfn2 expression entry in the experiment with Mfn2 is listed as “statistically significant elevation of Mfn2 expression”. For the same compound, in the experiment with PGC-1α, the PGC-1α expression result is listed as “statistically significant elevation of PGC-1α expression”.

Consider `C=C1CC[C@H](O)C/C1=C/C=C1\CCC[C@]2(C)[C@@H]([C@H](C)CCCC(C)C)CC[C@@H]12` [Vitamin D3, cholecalciferol, reference compound], for which the UCP1 expression result in the experiment with UCP1 is “statistically significant elevation of UCP1 expression”. Also, the “average lipid droplet size” value in experiment [1] (Vitamin D3 1 nM, FIG. 2) was “slight reduction in lipid droplet size, this reduction was not statistically significant”; in experiment [1] (Vitamin D3 10 nm, FIG. 2), “statistically significant reduction in lipid droplet size”; in experiment [1] (Vitamin D3 100 nm, FIG. 2), “statistically significant reduction in lipid droplet size”. For the same compound, the “decrease in TNF-α expression” value in the experiment with TNF-α is reported as “approximately 50%”. Also, the Mfn2 expression result in the experiment on Mfn2 was “statistically significant elevation of Mfn2 expression”. Also, in the experiment with PGC-1α, the PGC-1α expression entry is listed as “statistically significant elevation of PGC-1α expression”.
